Results taken from ChEMBL document CHEMBL1201862, “PubChem BioAssay data set” (2004).
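48-hour exposure; five concentrations; linearly interpolated endpoints. GI50 is the concentration that inhibits growth by half.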 Active and inactive are the calls of the source. No stated cut-off is given here; in the data, active = GI50 up to about 1.1 µM and inactive = higher.

What was measured:
Experiment in all cases: growth of human tumour cells (NCI), 48 h
[1] = test system: 786-0
[2] = test system: CAKI-1
[3] = test system: CCRF-CEM
[4] = test system: COLO 205
[5] = test system: HCC 2998
[6] = test system: IGROV-1
[7] = test system: KM12
[8] = test system: LOX IMVI
[9] = test system: M14
[10] = test system: MDA-N
[11] = test system: MOLT-4
[12] = test system: NCI-H460
[13] = test system: NCI/ADR-RES
[14] = test system: OVCAR-5
[15] = test system: SF-539
[16] = test system: SK-OV-3
[17] = test system: SNB-75
[18] = test system: NCI-H226
[19] = test system: NCI-H23

Measured: GI50

O=C1CC(=O)N(C2CCCCC2)C(=O)N1c1ccccc1S(=O)(=O)Oc1ccccc1
inactive: [1] 18.1 µM | [2] > 100 µM | [3] 14.9 µM | [4] > 100 µM | [5] > 100 µM | [6] 14.9 µM | [7] > 100 µM | [8] 2.59 µM | [9] > 100 µM | [10] > 100 µM | [11] 19.2 µM | [12] > 100 µM | [13] > 100 µM | [14] > 100 µM | [15] > 100 µM | [16] > 100 µM | [17] > 100 µM

NC(Cc1ccc(OCc2ccccc2)cn1)C(=O)O (stereo not given)
inactive: [1] > 100 µM | [2] > 100 µM | [3] > 100 µM | [4] > 100 µM | [5] > 100 µM | [6] > 100 µM | [7] > 100 µM | [8] > 100 µM | [10] > 100 µM | [11] > 100 µM | [18] > 100 µM | [19] > 100 µM | [12] > 100 µM | [13] > 100 µM | [14] > 100 µM | [15] > 100 µM

CCOC(=O)c1sc2nc(SC)nc(Nc3ccc4c(c3)OCO4)c2c1N
inactive: [1] 21.6 µM | [2] > 100 µM | [3] 50.7 µM | [4] > 100 µM | [5] > 100 µM | [6] > 100 µM | [7] > 100 µM | [8] > 100 µM | [9] 41.9 µM | [10] > 100 µM | [11] > 100 µM | [18] 71.3 µM | [19] 53 µM | [12] > 100 µM | [13] 64.6 µM | [14] > 100 µM | [15] 32.9 µM

CCOC(=O)C1c2[nH]c3ccccc3c2CCN1C(=O)c1ccco1 (stereo not given)
inactive: [1] > 10 µM | [2] > 10 µM | [3] > 10 µM | [4] > 10 µM | [5] > 10 µM | [6] > 10 µM | [7] > 10 µM | [9] > 10 µM | [10] > 10 µM | [11] > 10 µM | [13] > 10 µM | [15] > 10 µM | [16] > 10 µM | [17] > 10 µM

Cn1c(=O)c2nc[nH]c2n(C)c1=O [THEOPHYLLINE]
inactive: [1] > 100 µM | [2] 22.9 µM | [3] > 100 µM | [4] > 100 µM | [5] > 100 µM | [6] > 100 µM | [7] > 100 µM | [8] > 100 µM | [9] > 100 µM | [10] > 100 µM | [11] > 100 µM | [18] > 100 µM | [19] > 100 µM | [12] > 100 µM | [13] > 100 µM | [14] > 100 µM
